Counter-ions that a name gives are not always drawn.
Test system: Wistar rats
Assay: Food intake test (30 min, living mealworms) in non-deprived rats
Assay type: in vivo, rat
Conditions: for Dose needed for effect on food intake in this procedure (conclusion): into esophagus
Description: In the following examples food intake tests were run with cohorts of 32 Wistar rats having food intake sessions in two groups of 16 rats in parallel. There were 8 rats per experimental group. The rats weighed in the range of 260-370 grams. Rats were acclimatized to the housing conditions in our laboratory for at least one week after arrival from the breeder. The rats were housed in pairs in Macrolon cages of 42×26 cm and 15 cm high, with standard food and water available ad libitum. The day-night cycle was not reversed (lights on at 7:00 AM, off 19:00 PM). Food intake tests were run in the same room wherein the rats were housed in the light period of the diurnal cycle of the rats. In a further period the rats were habituated to human handling and to the manner of presentation of mealworms in the food intake tests. Food intake was measured with rats without food deprivation. Food intake tests were done by placing the rats from their home cage individually into clean Macrolon (42×26×15 cm) cages without bedding. A weighed amount of at least 15-20 g living mealworms in a petri dish was placed in the middle of the cage and rats were allowed 30 minutes for eating mealworms. During the 30 minute test for food intake no drinking water was available. Injection treatments were administered at determined times before the food intake test. After drug administration the rats were returned to their home cage. Both rats of a pair in a living cage were assigned to the same treatment groups. Otherwise allocation of rats to experimental groups was done such that the treatments were equally and randomly spread over the duration of an experiment. The experimenter remained in the test room for the duration of an experiment. This allowed observation of general behavioural effects of the treatments. Abnormalities were recorded.
For drug administration commercially available stock solutions in vials were used: • lidocainehydrochloride 20 mg/ml injection fluid (Fresenius Kabi); procainamidehydrochloride 100 mg/ml injection fluid (Apotheek Haagse Ziekenhuizen); • ropivacainehydrochloride 7.5 mg/ml injection fluid (Fresenius Kabi); • metoclopramine (Sigma) was weighed and dissolved for use.
Drugs were administered in volumes of 1 ml/kg rat.
Vehicle: for local anesthetics the commercial physiological saline solutions for injection were used directly or the solution was diluted with distilled water. Alginate for a 2% viscous alginate solution was added 18 hours before use of the solution for injection. The solution was prepared to a viscous solution by allowing 18 hours of slow mechanical mixing.
For administration of the drug into the lumen of the esophagus the injection fluid was administered by entering a thick needle with rounded tip via, and into the esophagus just above the lower esophageal sphincter and retreating during injection to release the volume to be injected just behind the pharynx.
For administration into the stomach a similar 1 mm thick needle with a 2 mm tip and 60 mm length was introduced into the stomach via the esophagus as customary for oral administration in rats.
For administration subcutaneously (sc) the injection fluid was injected with a sharp thin needle under the skin in the neck.

CCN(CC)CC(=O)Nc1c(C)cccc1C [Lidocaine•HCl, lidocainehydrochloride]
Grams of mealworms eaten (AVG) (Example 1, 1 mg/kg into esophagus, 30 minutes before test): 14.85 grams
Grams of mealworms eaten (AVG) (Example 1, 3 mg/kg into esophagus, 30 minutes before test): 14.46 grams
Grams of mealworms eaten (AVG) (Example 1, 10 mg/kg into esophagus, 30 minutes before test): 14.54 grams
Grams of mealworms eaten (AVG) (Example 2, 20 mg/kg esophagus, 15 minutes before test): 16.91 grams
Grams of mealworms eaten (AVG) (Example 2, 20 mg/kg esophagus, 30 minutes before test): 17.14 grams
Grams of mealworms eaten (AVG) (Example 2, 20 mg/kg stomach, 30 minutes before test): 16.28 grams
Effect on food intake, esophagus compared with stomach (conclusion) (Example 2, 20 mg/kg, application in the esophagus versus into the stomach): more effective
Effect on food intake (conclusion) (Example 2, dose of 20 mg/kg): effective
Dose needed for effect on food intake in this procedure (conclusion) (30 minutes before test): above 10 mg/kg

CCN(CC)CCNC(=O)c1ccc(N)cc1 [Procainamide, procainamidehydrochloride]
Grams of mealworms eaten (AVG) (Example 3, 20 m/kg esophagus, 30 minutes before test): 12.11 grams
Grams of mealworms eaten (AVG) (Example 4, 100 m/kg esophagus, 30 minutes before test): 10.55 grams
Dose needed for effect on food intake in this procedure (conclusion) (30 minutes before test): higher than 20 mg/kg

CCCN1CCCC[C@H]1C(=O)Nc1c(C)cccc1C.Cl [Ropivacaine, ropivacainehydrochloride]
Grams of mealworms eaten (AVG) (Example 3, 1.25 mg/kg esophagus, 30 minutes before test): 13.40 grams
Grams of mealworms eaten (AVG) (Example 4, 3.75 mg/kg esophagus, 30 minutes before test): 12.08 grams
Grams of mealworms eaten (AVG) (Example 4, 7.5 mg/kg esophagus, 30 minutes before test): 13.58 grams
Effect on food intake (conclusion) (Example 4, 7.5 mg/kg in the esophagus): enhanced food intake
Effect on meal size (conclusion) (Example 5, 7.5 mg/kg and 11.25 mg/kg in the esophagus): effective in increasing meal size
Grams of mealworms eaten (AVG) (Example 5, 7.5 mg/kg esophagus): 13.24 grams
Grams of mealworms eaten (AVG) (Example 5, 7.5 mg/kg stomach): 10.72 grams
Grams of mealworms eaten (AVG) (Example 5, 11.25 mg/kg esophagus): 14.44 grams
Dose needed for effect on food intake in this procedure (conclusion) (30 minutes before test): higher than 1.25 mg/kg

CCN(CC)CCNC(=O)c1cc(Cl)c(N)cc1OC [metoclopramide]
Grams of mealworms eaten (AVG) (Example 6, 3 mg/kg sc, 30 minutes before test): 11.86 grams
Grams of mealworms eaten (AVG) (Example 6, 10 mg/kg sc, 30 minutes before test): 1.25 grams
Grams of mealworms eaten (AVG) (Example 6, 30 mg/kg sc, 30 minutes before test): 0.22 grams
Effect on food intake (conclusion) (Example 6, subcutaneously at doses above 3 mg/kg): inhibits food intake
Grams of mealworms eaten (AVG) (Example 7, 0.1 mg/kg sc, 30 minutes before test): 13.51 grams
Grams of mealworms eaten (AVG) (Example 7, 0.3 mg/kg sc, 30 minutes before test): 12.23 grams
Grams of mealworms eaten (AVG) (Example 7, 1 mg/kg sc, 30 minutes before test): 15.76 grams
Effect on food intake (conclusion) (Example 7, 0.1 and 0.3 mg/kg subcutaneously): ineffective
Effect on food intake (conclusion) (Example 7, subcutaneous injection of 1 mg/kg): increases food intake

From patent US10828272B2, “Means to facilitate food intake and food retention” (Chardon Group B.V., priority 2012, dated 2020)
